In the supplement of paper PMC10307832:

Legend:
Assay in all cases: relative viability (nuclei count vs DMSO), 5 days (fraction); higher = more cells survive
A-427 = test system: A-427
Summary of the method: (§1)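 One day after seeding in 1536-well plates, lung cancer cell lines were dosed by pin tool. Dosing was either single-drug or a fixed anchor-drug dose plus five library-drug doses (not always all listed) in √10 steps. After 5 days, nuclei were stained in one fix-and-stain step and counted on 4× images, and relative viability is the nuclei count of treated wells over that of vehicle wells, given as the median of duplicate plates.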

ChaGo-K-1 = test system: ChaGo-K-1
Summary of the method: as §1

EKVX = test system: EKVX
Summary of the method: as §1

H3255 = test system: H3255
Summary of the method: as §1

LK-2 = test system: LK-2
Summary of the method: as §1

NCI-H1355 = test system: NCI-H1355
Summary of the method: as §1

NCI-H1650 = test system: NCI-H1650
Summary of the method: as §1

NCI-H1666 = test system: NCI-H1666
Summary of the method: as §1

NCI-H1755 = test system: NCI-H1755
Summary of the method: as §1

NCI-H1944 = test system: NCI-H1944
Summary of the method: as §1

NCI-H2085 = test system: NCI-H2085
Summary of the method: as §1

NCI-H2228 = test system: NCI-H2228
Summary of the method: as §1

NCI-H2347 = test system: NCI-H2347
Summary of the method: as §1

NCI-H3122 = test system: NCI-H3122
Summary of the method: as §1

NCI-H322M = test system: NCI-H322M
Summary of the method: as §1

NCI-H358 = test system: NCI-H358
Summary of the method: as §1

NCI-H441 = test system: NCI-H441
Summary of the method: as §1

NCI-H460 = test system: NCI-H460
Summary of the method: as §1

NCI-H520 = test system: NCI-H520
Summary of the method: as §1

NCI-H596 = test system: NCI-H596
Summary of the method: as §1

NCI-H650 = test system: NCI-H650
Summary of the method: as §1

NCI-H838 = test system: NCI-H838
Summary of the method: as §1

SW 1573 = test system: SW 1573
Summary of the method: as §1

O=c1[nH]c2ccccc2n1C1CCN(CCCC(c2ccc(F)cc2)c2ccc(F)cc2)CC1 [Pimozide] + O=C(CCCCCCC(=O)Nc1ccccc1)NO [Vorinostat] (partner 1 µM)
relative viability (A-427; first compound 0.08 µM): 0.893 | relative viability (A-427; first compound 0.253 µM): 0.875 | relative viability (A-427; first compound 0.8 µM): 0.775 | relative viability (A-427; first compound 2.53 µM): 0.854 | relative viability (A-427; first compound 8 µM): 0.815 | relative viability (ChaGo-K-1; first compound 0.08 µM): 0.726 | relative viability (ChaGo-K-1; first compound 0.253 µM): 0.668 | relative viability (ChaGo-K-1; first compound 0.8 µM): 0.794 | relative viability (ChaGo-K-1; first compound 2.53 µM): 0.841 | relative viability (ChaGo-K-1; first compound 8 µM): 0.758 | relative viability (EKVX; first compound 0.253 µM): 0.712 | relative viability (EKVX; first compound 0.8 µM): 0.601 | relative viability (EKVX; first compound 2.53 µM): 0.812 | relative viability (EKVX; first compound 8 µM): 0.641 | relative viability (H3255; first compound 0.253 µM): 0.699 | relative viability (H3255; first compound 0.8 µM): 0.714 | relative viability (H3255; first compound 2.53 µM): 0.843 | relative viability (H3255; first compound 8 µM): 0.808 | relative viability (LK-2; first compound 0.08 µM): 0.2 | relative viability (LK-2; first compound 0.253 µM): 0.342 | relative viability (LK-2; first compound 0.8 µM): 0.254 | relative viability (LK-2; first compound 2.53 µM): 0.267 | relative viability (LK-2; first compound 8 µM): 0.395 | relative viability (NCI-H1355; first compound 0.08 µM): 0.592 | relative viability (NCI-H1355; first compound 0.253 µM): 0.597 | relative viability (NCI-H1355; first compound 0.8 µM): 0.547 | relative viability (NCI-H1355; first compound 2.53 µM): 0.607 | relative viability (NCI-H1355; first compound 8 µM): 0.608 | relative viability (NCI-H1650; first compound 0.08 µM): 0.449 | relative viability (NCI-H1650; first compound 0.253 µM): 0.571 | relative viability (NCI-H1650; first compound 0.8 µM): 0.687 | relative viability (NCI-H1650; first compound 2.53 µM): 0.591 | relative viability (NCI-H1650; first compound 8 µM): 0.546 | relative viability (NCI-H1666; first compound 0.08 µM): 1.09 | relative viability (NCI-H1666; first compound 0.253 µM): 0.905 | relative viability (NCI-H1666; first compound 0.8 µM): 0.924 | relative viability (NCI-H1666; first compound 2.53 µM): 0.991 | relative viability (NCI-H1666; first compound 8 µM): 1.02 | relative viability (NCI-H1755; first compound 0.08 µM): 0.886 | relative viability (NCI-H1755; first compound 0.253 µM): 0.668 | relative viability (NCI-H1755; first compound 0.8 µM): 0.721 | relative viability (NCI-H1755; first compound 2.53 µM): 0.738 | relative viability (NCI-H1755; first compound 8 µM): 0.682 | relative viability (NCI-H1944; first compound 0.08 µM): 0.563 | relative viability (NCI-H1944; first compound 2.53 µM): 0.636 | relative viability (NCI-H1944; first compound 8 µM): 0.47 | relative viability (NCI-H2085; first compound 0.08 µM): 0.77 | relative viability (NCI-H2085; first compound 0.253 µM): 0.861 | relative viability (NCI-H2085; first compound 0.8 µM): 0.723 | relative viability (NCI-H2085; first compound 2.53 µM): 0.802 | relative viability (NCI-H2085; first compound 8 µM): 0.741 | relative viability (NCI-H2228; first compound 0.08 µM): 0.623 | relative viability (NCI-H2228; first compound 0.253 µM): 0.668 | relative viability (NCI-H2228; first compound 0.8 µM): 0.668 | relative viability (NCI-H2228; first compound 2.53 µM): 0.677 | relative viability (NCI-H2228; first compound 8 µM): 0.318 | relative viability (NCI-H2347; first compound 0.08 µM): 0.685 | relative viability (NCI-H2347; first compound 0.253 µM): 0.594 | relative viability (NCI-H2347; first compound 0.8 µM): 0.537 | relative viability (NCI-H2347; first compound 2.53 µM): 0.537 | relative viability (NCI-H2347; first compound 8 µM): 0.492 | relative viability (NCI-H3122; first compound 0.08 µM): 0.924 | relative viability (NCI-H3122; first compound 0.253 µM): 0.951 | relative viability (NCI-H3122; first compound 0.8 µM): 0.81 | relative viability (NCI-H3122; first compound 2.53 µM): 0.724 | relative viability (NCI-H3122; first compound 8 µM): 0.847 | relative viability (NCI-H322M; first compound 0.08 µM): 0.885 | relative viability (NCI-H322M; first compound 0.253 µM): 0.844 | relative viability (NCI-H322M; first compound 0.8 µM): 0.88 | relative viability (NCI-H322M; first compound 2.53 µM): 0.885 | relative viability (NCI-H322M; first compound 8 µM): 0.786 | relative viability (NCI-H358; first compound 0.08 µM): 0.697 | relative viability (NCI-H358; first compound 0.253 µM): 0.685 | relative viability (NCI-H358; first compound 0.8 µM): 0.639 | relative viability (NCI-H358; first compound 2.53 µM): 0.906 | relative viability (NCI-H358; first compound 8 µM): 0.679 | relative viability (NCI-H441; first compound 0.08 µM): 0.699 | relative viability (NCI-H441; first compound 0.253 µM): 0.657 | relative viability (NCI-H441; first compound 0.8 µM): 0.74 | relative viability (NCI-H441; first compound 2.53 µM): 0.857 | relative viability (NCI-H441; first compound 8 µM): 0.687 | relative viability (NCI-H460; first compound 0.08 µM): 0.727 | relative viability (NCI-H460; first compound 0.253 µM): 0.654 | relative viability (NCI-H460; first compound 0.8 µM): 0.711 | relative viability (NCI-H460; first compound 2.53 µM): 0.681 | relative viability (NCI-H460; first compound 8 µM): 0.664 | relative viability (NCI-H520; first compound 0.08 µM): 0.727 | relative viability (NCI-H520; first compound 0.253 µM): 0.663 | relative viability (NCI-H520; first compound 0.8 µM): 0.671 | relative viability (NCI-H520; first compound 2.53 µM): 0.685 | relative viability (NCI-H520; first compound 8 µM): 0.65 | relative viability (NCI-H596; first compound 0.08 µM): 0.702 | relative viability (NCI-H596; first compound 0.253 µM): 0.598 | relative viability (NCI-H596; first compound 0.8 µM): 0.467 | relative viability (NCI-H596; first compound 2.53 µM): 0.583 | relative viability (NCI-H596; first compound 8 µM): 0.549 | relative viability (NCI-H650; first compound 0.08 µM): 0.455 | relative viability (NCI-H650; first compound 0.253 µM): 0.386 | relative viability (NCI-H650; first compound 0.8 µM): 0.399 | relative viability (NCI-H650; first compound 2.53 µM): 0.454 | relative viability (NCI-H650; first compound 8 µM): 0.452 | relative viability (NCI-H838; first compound 0.08 µM): 0.745 | relative viability (NCI-H838; first compound 0.253 µM): 0.716 | relative viability (NCI-H838; first compound 0.8 µM): 0.663 | relative viability (NCI-H838; first compound 2.53 µM): 0.702 | relative viability (NCI-H838; first compound 8 µM): 0.705 | relative viability (SW 1573; first compound 0.08 µM): 0.83 | relative viability (SW 1573; first compound 0.253 µM): 0.63 | relative viability (SW 1573; first compound 0.8 µM): 0.579 | relative viability (SW 1573; first compound 2.53 µM): 0.323 | relative viability (SW 1573; first compound 8 µM): 0.33
